Measured values as given in patent publication US20220380370A1 (Goldfinch Bio, Inc., priority 2019, published 2022).
pIC50: −log10 of the molar value.

Molecular target: T1, CB1 receptor (Homo sapiens, UniProt P21554)
T1 construct: Perkin Elmer (CB1-CHO cells); host or cells: Flp-In CHO cells or CB1-CHO cells, stably expressing
Assay: CB1 cAMP antagonist assay (LANCE Ultra cAMP kit)
Assay type: cell-based
Conditions: CHO cells stably expressing the CB1 receptor; forskolin and agonist CP55940 at EC90
Source text: LANCE Ultra cAMP kit (Perkin Elmer) was used to quantitate the amount of 3′,5′-cyclic adenosine monophosphate (cAMP) produced in Flp-In CHO cells (Invitrogen) stably expressing the CB1 receptor, CB1-CHO cells (Perkin Elmer) stably expressing the CB1 receptor, or CB2-CHO cells (Perkin Elmer) stably expressing the CB2 receptor.
Forskolin was initially titrated to determine the response of the cells. The EC90 of forskolin was used for compound testing. CP55940 was titrated and used with EC90 of forskolin to determine the level of agonist stimulation. EC90 of the agonist was used for subsequent compound testing. For the CB1 assay, Forskolin (Sigma), CP55940 (Cayman Chemicals), and AM251 (MCE) were diluted in 100% DMSO, starting at 100 mM, 1 mM, and 1 mM respectively, in 3-fold serial dilutions. For the CB2 assay, Forskolin (Sigma), CP55940 (Cayman Chemicals), and AM630 (MCE) were diluted in 100% DMSO, starting at 100 mM, 1 mM, and 30 mM respectively, in 3-fold serial dilutions. Test compounds were diluted in 100% DMSO starting from 10 mM, 3-fold dilutions. The cAMP assay buffer contains 1× Hank's Buffered Saline Solution with Ca^2+ and Mg^2+ (Invitrogen), 5.3 mM HEPES (Invitrogen), 0.05% BSA, 0.5 mM IBMX (Sigma). For all assays, cells were harvested, counted, and diluted in cAMP assay buffer to 1×10^5 cells/mL. Only cells with viability >85% were used for the assay. Cells were seeded at 1000 cells/well in 384-well plates and 10 nL/well AM251 (for CB1), AM630 (for CB2) or test compound was added and incubated at 37° C. for 10 min. Then forskolin and agonist were added to reach their EC90 and incubated at 25° C. for 30 min. To detect the amount of cAMP produced, 5 μL of a 100× diluted stock of Eu-cAMP tracer and 5 μL of 200× diluted stock of Ulight-anti-cAMP were added to each well, and the plate incubated at 25° C. for 15 min. The FRET signal was read using an EnVision microplate reader (λex=320 nm, λem=615 nm and 665 nm). The results are expressed as % Inhibition, where % inhibition=100−100×(U−C2)/(C1−C2), where U is the FRET ratio (λem (665 nm)/λem (615 nm)) of sample, C1 is the average of the high controls (signal with no antagonist added), and C2 is the average of low controls (signal with the highest concentration of AM251 or AM630 antagonist). The IC50 is determined by fitting the percentage of inhibition as a function of compound concentrations with the Hill equation, using a 4-parameter fit in either XLfit or GraphPad Prism.

T1 sequence (P21554 whole entry): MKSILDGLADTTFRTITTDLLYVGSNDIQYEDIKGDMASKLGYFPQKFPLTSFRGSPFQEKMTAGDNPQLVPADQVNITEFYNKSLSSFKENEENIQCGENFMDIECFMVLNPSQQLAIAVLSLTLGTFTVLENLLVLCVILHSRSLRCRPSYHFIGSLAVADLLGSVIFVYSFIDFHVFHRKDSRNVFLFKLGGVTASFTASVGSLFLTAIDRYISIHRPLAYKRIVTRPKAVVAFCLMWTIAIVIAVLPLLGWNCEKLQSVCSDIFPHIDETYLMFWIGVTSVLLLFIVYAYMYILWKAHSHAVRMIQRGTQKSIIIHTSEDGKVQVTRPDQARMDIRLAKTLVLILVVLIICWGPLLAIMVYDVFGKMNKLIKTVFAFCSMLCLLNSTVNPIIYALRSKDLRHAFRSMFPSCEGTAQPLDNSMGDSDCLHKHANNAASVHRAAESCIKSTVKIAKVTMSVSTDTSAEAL

pIC50 | SMILES
> 7.00 | C[C@@H](c1ccc(S(N)(=O)=O)cn1)n1c(=O)n(C)c(=O)c2c1nc(-c1ccccc1Cl)n2-c1ccc(Cl)cc1 [Compound 179, 6-[(1S)-1-[8-(2-chlorophenyl)-7-(4-chlorophenyl)-1-methyl-2,6-dioxopurin-3-yl]ethyl]pyridine-3-sulfonamide]
≤ 5.30 | CN1CCC(Cn2c(=O)n(C)c(=O)c3c2nc(-c2ccccc2Cl)n3-c2ccc(Cl)cc2)CC1 [Compound 116, 8-(2-chlorophenyl)-7-(4-chlorophenyl)-1-methyl-3-[(1-methylpiperidin-4-yl)methyl]-2,3,6,7-tetrahydro-1H-purine-2,6-dione]
> 7.00 | C[C@@H](Cn1c(=O)c2c(nc(-c3ccccc3Cl)n2-c2ccc(Cl)cc2)n(CC2CCS(=O)(=O)CC2)c1=O)C(N)=O [Compound 174, (2S)-3-[8-(2-chlorophenyl)-7-(4-chlorophenyl)-3-[(1,1-dioxo-1λ^6-thian-4-yl)methyl]-2,6-dioxopurin-1-yl]-2-methylpropanamide]
> 7.00 | NC(=O)Cn1c(=O)c2c(nc(-c3ccc(F)cc3Cl)n2-c2ccc(Cl)cc2)n(CC2CCS(=O)(=O)CC2)c1=O [Compound 173]
> 7.00 | NC(=O)Cn1c(=O)c2c(nc(-c3ccccc3Cl)n2-c2ccc(Cl)cc2)n(CC2COCCO2)c1=O (racemic) [Compound 124, 2-[8-(2-chlorophenyl)-7-(4-chlorophenyl)-3-(1,4-dioxan-2-ylmethyl)-2,6-dioxopurin-1-yl]acetamide]
6.00 to 7.00 | NC(=O)Cn1c(=O)c2c(nc(-c3ccccc3Cl)n2-c2ccc(Cl)cc2)n(CC2COCCO2)c1=O (stereo in doubt) [Compound 128, 2-[8-(2-chlorophenyl)-7-(4-chlorophenyl)-3-[(2S)-1,4-dioxan-2-ylmethyl]-2,6-dioxopurin-1-yl]acetamide]
> 7.00 | Cn1c(=O)c2c(nc(-c3ccccc3Cl)n2-c2ccc(Cl)cc2)n(Cc2ccc(C(=O)NCC(C)(C)O)cn2)c1=O [Compound 166]
6.00 to 7.00 | C[C@H](C(N)=O)n1c(=O)c2c(nc(-c3ccccc3Cl)n2-c2ccc(Cl)cc2)n(C2CCOCC2)c1=O [Compound 137]
6.00 to 7.00 | C[C@@H](c1ccc(C(N)=O)cc1)n1c(=O)n(C[C@@H](O)CO)c(=O)c2c1nc(-c1ccccc1Cl)n2-c1ccc(Cl)cc1 [Compound 151]
6.00 to 7.00 | NC(=O)Cn1c(=O)c2c(nc(-c3ccc(F)cc3F)n2-c2ccc(Cl)cc2)n(CC2CCS(=O)(=O)CC2)c1=O [Compound 172, 2-[7-(4-chlorophenyl)-8-(2,4-difluorophenyl)-3-[(1,1-dioxo-1λ^6-thian-4-yl)methyl]-2,6-dioxopurin-1-yl]acetamide]
> 7.00 | NC(=O)Cn1c(=O)c2c(nc(-c3ccccc3Cl)n2-c2ccc(Cl)cc2)n(CC2(O)CCOCC2)c1=O [Compound 168, 2-[8-(2-chlorophenyl)-7-(4-chlorophenyl)-3-[(4-hydroxyoxan-4-yl)methyl]-2,6-dioxopurin-1-yl]acetamide]
> 7.00 | C[C@@H](CO)NC(=O)c1ccc(Cn2c(=O)n(C)c(=O)c3c2nc(-c2ccccc2Cl)n3-c2ccc(Cl)cc2)nc1 [Compound 160]
> 7.00 | C[C@@H](C(N)=O)n1c(=O)c2c(nc(-c3ccccc3Cl)n2-c2ccc(Cl)cc2)n(CC2CCOCC2)c1=O [Compound 139]
> 7.00 | NC(=O)Cn1c(=O)c2c(nc(-c3ccccc3Cl)n2-c2ccc(Cl)cc2)n(CC2(F)CCOCC2)c1=O [Compound 157]
6.00 to 7.00 | NC(=O)Cn1c(=O)c2c(nc(-c3ccccc3Cl)n2-c2ccc(Cl)cc2)n(CC2COCCO2)c1=O (stereo in doubt) [Compound 127, 2-[8-(2-chlorophenyl)-7-(4-chlorophenyl)-3-[(2R)-1,4-dioxan-2-ylmethyl]-2,6-dioxopurin-1-yl]acetamide]
> 7.00 | NC(=O)Cn1c(=O)c2c(nc(-c3ccccc3Cl)n2-c2ccc(Cl)cc2)n(Cc2ccc(S(N)(=O)=O)cc2)c1=O [Compound 153]
≤ 5.30 | NC(=O)Cn1c(=O)c2c(nc(-c3ccccc3Cl)n2-c2ccc(Cl)cc2)n(CC2CCN(CCO)CC2)c1=O [Compound 117]
> 7.00 | CC(C(N)=O)n1c(=O)c2c(nc(-c3ccccc3Cl)n2-c2ccc(Cl)cc2)n(CC2CCS(=O)(=O)CC2)c1=O (stereo in doubt) [Compound 144, (2R)-2-[8-(2-chlorophenyl)-7-(4-chlorophenyl)-3-[(1,1-dioxo-1 lambda6-thian-4-yl)methyl]-2,6-dioxopurin-1-yl]propanamide]
6.00 to 7.00 | Cn1nccc1-c1nc2c(c(=O)n(C)c(=O)n2Cc2ccc(S(N)(=O)=O)cn2)n1-c1ccc(Cl)cc1 [Compound 182, 6-[[7-(4-chlorophenyl)-1-methyl-8-(2-methylpyrazol-3-yl)-2,6-dioxopurin-3-yl]methyl]pyridine-3-sulfonamide]
5.30 to 6.00 | Cn1c(=O)[nH]c2nc(-c3ccccc3Cl)n(-c3ccc(Cl)cc3)c2c1=O [Compound 147, 8-(2-chlorophenyl)-7-(4-chlorophenyl)-1-methyl-3H-purine-2,6-dione]
6.00 to 7.00 | CC(=O)N1CCC(Cn2c(=O)n(C(C)C(N)=O)c(=O)c3c2nc(-c2ccccc2Cl)n3-c2ccc(Cl)cc2)CC1 (centres unmarked) [Compound 129, 2-[3-[(1-acetylpiperidin-4-yl)methyl]-8-(2-chlorophenyl)-7-(4-chlorophenyl)-2,6-dioxopurin-1-yl]propanamide]
6.00 to 7.00 | NC(=O)Cn1c(=O)c2c(nc(-c3ccccc3Cl)n2-c2ccc(Cl)cc2)n(Cc2ccc(CC(O)CO)cc2)c1=O (stereo in doubt) [Compound 146, 2-[8-(2-chlorophenyl)-7-(4-chlorophenyl)-3-([4-[(2S)-2,3-dihydroxypropyl]phenyl]methyl)-2,6-dioxopurin-1-yl]acetamide]
> 7.00 | Cn1nccc1-c1nc2c(c(=O)n(C)c(=O)n2Cc2ccc(S(N)(=O)=O)cc2)n1-c1ccc(Cl)cc1 [Compound 181]
> 7.00 | CS(=O)(=O)c1ccc(Cn2c(=O)n(CC(N)=O)c(=O)c3c2nc(-c2ccccc2Cl)n3-c2ccc(Cl)cc2)nc1 [Compound 154]
> 7.00 | CC(C)(C)C(=O)OCn1c(=O)c2c(nc(-c3ccccc3Cl)n2-c2ccc(Cl)cc2)n(C2CCCCC2)c1=O [Compound 102]
> 7.00 | O=c1[nH]c(=O)n(Cc2ccc(Cl)cc2)c2nc(-c3ccccc3Cl)n(-c3ccc(Cl)cc3)c12 [Compound 119, 8-(2-chlorophenyl)-7-(4-chlorophenyl)-3-[(4-chlorophenyl)methyl]-2,3,6,7-tetrahydro-1H-purine-2,6-dione]
> 7.00 | Cn1c(=O)c2c(nc(-c3cccnc3Cl)n2-c2ccc(Cl)cc2)n(C2CCCCC2)c1=O [Compound 152, 7-(4-chlorophenyl)-8-(2-chloropyridin-3-yl)-3-cyclohexyl-1-methylpurine-2,6-dione]
> 7.00 | Cn1c(=O)c2c(nc(-c3ccccc3Cl)n2-c2ccc(Cl)nc2)n(C2CCCCC2)c1=O [Compound 149, 8-(2-chlorophenyl)-7-(6-chloropyridin-3-yl)-3-cyclohexyl-1-methylpurine-2,6-dione]
> 7.00 | NC(=O)Cn1c(=O)c2c(nc(-c3ccccc3Cl)n2-c2ccc(Cl)cc2)n(Cc2ccc(CN3CCOCC3)cc2)c1=O [Compound 121, 2-[8-(2-chlorophenyl)-7-(4-chlorophenyl)-3-([4-[(morpholin-4-yl)methyl]phenyl]methyl)-2,6-dioxo-2,3,6,7-tetrahydro-1H-purin-1-yl]acetamide]
